Reference: patent US5972894A, “Peptides having potassium channel opener activity” (Cytran, Inc., priority 1997, dated 1999)
Residues, ends and D or L forms follow the SMILES beside them.

System: ischemic myocardium
Test: Inotropic function and arrhythmias of ischemic isolated rat heart during reperfusion
Settings: for Number of Ventricular Extrasystoles / Overall Duration of Ventricular Fibrillation / Overall Duration of Ventricular Tachycardia: 30-minute reperfusion
Description: Rat hearts were surgically isolated from white random-bred rats weighing approximately 250 g. The isolated hearts were perfused with a standard oxygenated (95% O2 and 5% CO2) Krebs-Henseleit solution in a retrograde manner (i.e., according to Langendorff and using a constant perfusate pressure of 80 cm of water). The hearts maintained a steady spontaneous contraction rate. A latex balloon catheter connected to a pressure transducer (EMT-746, Siemens-Elema, Sweden) was inserted into the left ventricle of each heart to measure the inotropic function of the heart (as described in Example 3, above). The left ventricle pressure variation curve was recorded using a polygraph.
Stage I ("adaptation regimen") consisted of a 30-minute adaptation of the respective rat hearts to the perfusion regimen. The baseline parameters for the inotropic function of each heart were recorded to establish the preischemic values for the following measured parameters: (i) the systolic pressure in the left ventricle (Psyst. mm Hg); (ii) the diastolic pressure in the left ventricle (Pdiast. mm Hg); (iii) the evolving pressure (Pev. =Psyst. -Pdist. mm Hg); (iv) the maximal rate of increase of left ventricle pressure (+dp/dtmax mm Hg/sec); and (v) the maximal rate of decrease of left ventricle pressure (-dp/dtmax mm Hg/sec). In addition, the heart rate (HR) of each heart was determined from the recordings made of the variations in the left ventricle pressure over time. In Stage II ("ischemic simulation"), ischemia was induced in each heart by shutting off the supply of the perfusion solution to the heart. Approximately 30 minutes later, Stage III ("reperfusion regimen") was initiated by restarting the reperfusion and including in the perfusate solution a test or control substance at one of the following respective concentrations: a perfusate solution of a test substance comprised 0.06, 0.6, or 6.0 mg/l GE, or 0.06, 0.6, or 6.0 mg/l VT, respectively; a perfusate solution of the positive control substance comprised 14 mg/l inosine. Inosine is a nucleoside preparation that produces a favorable inotropic effect on both normal and ischemic myocardium while inducing no rhythm disturbances or acceleration of ischemic contracture development. Woollard et al., Cardiovasc. Res. 15: 659-67 (1981). Inosine was obtained from Sigma Chemical Company, USA (Cat. Code I-4125; lot number 81H0227). The negative control substance comprised reperfusion using a standard oxygenated Krebs-Henseleit solution.
For each heart, the inotropic function of the myocardium was evaluated by measuring the parameters (i) through (v), discussed above, and the heart rate. These six parameters were recorded continuously throughout the study (i.e., beginning with Stage I and continuing through Stage III). The recordings were analyzed at the following times: (a) immediately before beginning Stage II (that is, after the 30-minute Stage I adaptation period, but before stopping perfusion); and (b) at 1, 5, 10, 20, and 30 minutes into the Stage III reperfusion.
The frequency and duration of rhythm disturbances in the 30-minute Stage III reperfusion period were determined by measuring the following parameters: (i) the number of ventricular extrasystoles; (ii) the overall duration of ventricular tachycardias (in seconds); and (iii) the overall duration of ventricular fibrillation (in seconds). Each dose of the test substance was tested on nine isolated hearts.

## NCC(=O)N[C@@H](CCC(=O)O)C(=O)O [GE, L-Glycyl-L-Glutamic acid] (H-Gly-Glu-OH)
0.06 mg/l
  Number of Ventricular Extrasystoles: 182.2
  Overall Duration of Ventricular Fibrillation: 0 s
  Overall Duration of Ventricular Tachycardia: 2.1 s
0.06 mg/l, 1 min reperfusion
  Diastolic Pressure in Ischemic Left Ventricle (% of Preischemic Mean Value): 95.96%
  Evolving Pressure in Ischemic Left Ventricle (% of Preischemic Mean Value): 117.70%
  Heart Rate during Reperfusion (% of Preischemic Mean Value): 69.09%
  Maximal Rate of Increase of Left Ventricle Pressure (% of Preischemic Mean Value): 127.30%
  Maximal Rate of Left Ventricle Pressure Decrease (% of Preischemic Mean Value): 86.91%
  Systolic Pressure in Ischemic Left Ventricle (% of Preischemic Values): 115.11%
0.06 mg/l, 5 min reperfusion
  Diastolic Pressure in Ischemic Left Ventricle (% of Preischemic Mean Value): 124.53%
  Evolving Pressure in Ischemic Left Ventricle (% of Preischemic Mean Value): 92.58%
  Heart Rate during Reperfusion (% of Preischemic Mean Value): 91.94%
  Maximal Rate of Increase of Left Ventricle Pressure (% of Preischemic Mean Value): 98.87%
  Maximal Rate of Left Ventricle Pressure Decrease (% of Preischemic Mean Value): 89.27%
  Systolic Pressure in Ischemic Left Ventricle (% of Preischemic Values): 98.86%
0.06 mg/l, 10 min reperfusion
  Diastolic Pressure in Ischemic Left Ventricle (% of Preischemic Mean Value): 128.57%
  Evolving Pressure in Ischemic Left Ventricle (% of Preischemic Mean Value): 86.19%
  Heart Rate during Reperfusion (% of Preischemic Mean Value): 93.44%
  Maximal Rate of Increase of Left Ventricle Pressure (% of Preischemic Mean Value): 87.39%
  Maximal Rate of Left Ventricle Pressure Decrease (% of Preischemic Mean Value): 82.04%
  Systolic Pressure in Ischemic Left Ventricle (% of Preischemic Values): 89.79%
0.06 mg/l, 20 min reperfusion
  Diastolic Pressure in Ischemic Left Ventricle (% of Preischemic Mean Value): 134.92%
  Evolving Pressure in Ischemic Left Ventricle (% of Preischemic Mean Value): 74.40%
  Heart Rate during Reperfusion (% of Preischemic Mean Value): 72.87%
  Maximal Rate of Increase of Left Ventricle Pressure (% of Preischemic Mean Value): 87.39%
  Maximal Rate of Left Ventricle Pressure Decrease (% of Preischemic Mean Value): 75.11%
  Systolic Pressure in Ischemic Left Ventricle (% of Preischemic Values): 84.10%
0.06 mg/l, 30 min reperfusion
  Diastolic Pressure in Ischemic Left Ventricle (% of Preischemic Mean Value): 91.20%
  Evolving Pressure in Ischemic Left Ventricle (% of Preischemic Mean Value): 68.73%
  Heart Rate during Reperfusion (% of Preischemic Mean Value): 68.67%
  Maximal Rate of Increase of Left Ventricle Pressure (% of Preischemic Mean Value): 70.93%
  Maximal Rate of Left Ventricle Pressure Decrease (% of Preischemic Mean Value): 66.02%
  Systolic Pressure in Ischemic Left Ventricle (% of Preischemic Values): 72.11%
0.6 mg/l
  Number of Ventricular Extrasystoles: 168.5
  Overall Duration of Ventricular Fibrillation: 44.3 s
  Overall Duration of Ventricular Tachycardia: 22.2 s
0.6 mg/l, 1 min reperfusion
  Diastolic Pressure in Ischemic Left Ventricle (% of Preischemic Mean Value): 69.70%
  Evolving Pressure in Ischemic Left Ventricle (% of Preischemic Mean Value): 71.90%
  Heart Rate during Reperfusion (% of Preischemic Mean Value): 52.28%
  Maximal Rate of Increase of Left Ventricle Pressure (% of Preischemic Mean Value): 71.21%
  Maximal Rate of Left Ventricle Pressure Decrease (% of Preischemic Mean Value): 53.56%
  Systolic Pressure in Ischemic Left Ventricle (% of Preischemic Values): 74.01%
0.6 mg/l, 5 min reperfusion
  Diastolic Pressure in Ischemic Left Ventricle (% of Preischemic Mean Value): 113.42%
  Evolving Pressure in Ischemic Left Ventricle (% of Preischemic Mean Value): 83.73%
  Heart Rate during Reperfusion (% of Preischemic Mean Value): 85.30%
  Maximal Rate of Increase of Left Ventricle Pressure (% of Preischemic Mean Value): 84.14%
  Maximal Rate of Left Ventricle Pressure Decrease (% of Preischemic Mean Value): 79.56%
  Systolic Pressure in Ischemic Left Ventricle (% of Preischemic Values): 90.02%
0.6 mg/l, 10 min reperfusion
  Diastolic Pressure in Ischemic Left Ventricle (% of Preischemic Mean Value): 95.24%
  Evolving Pressure in Ischemic Left Ventricle (% of Preischemic Mean Value): 86.63%
  Heart Rate during Reperfusion (% of Preischemic Mean Value): 77.07%
  Maximal Rate of Increase of Left Ventricle Pressure (% of Preischemic Mean Value): 88.69%
  Maximal Rate of Left Ventricle Pressure Decrease (% of Preischemic Mean Value): 87.20%
